Columns and labels:
Assay in all cases: Antibacterial effect test
Escherichia coli FMK1254 = assay type: cell-based; conditions: for antibacterial effects (in words): E. coli
Description: (§1) Antibacterial Effect Test
(§2) Composition of Example 1: The composition of Example 1 was filled in a pump foamer (manufactured by DAIWA CAN COMPANY).
(§3) Ethanol gel: A hand cleansing gel made by […] CO. LTD. (ethanol content: 70%, formulated with aloe extract).
(§4) MacConkey Agar (Difco) was employed for E. coli FMK1254 and Pathogenic E. coli 0157:H7 SAKAI.
(§5) 1) The respective strains were incubated overnight in TSB at 37° C. The bacterial suspensions were diluted with physiologic saline to have a concentration of approximately 10^4 CFU/ml each.
(§6) 2) Next, 4.5 g each of the test samples were added to dishes (Composition of Example 1 and Control composition were added in a foamed state.). Thereafter, 0.5 ml each of the bacterial suspensions obtained in the process 1) was inoculated thereinto and mixed well. For every combination (12 combinations in total) of the four test samples and the three bacterial suspensions, two sample dishes were prepared in this manner.
(§7) 3) Regarding the first ones of these sample dishes, the number of bacteria was counted immediately after inoculation of the bacterial suspensions, and also after one and two hours of incubation at 37° C. For incubation, the dishes were put in an incubator, with the lids slightly open. To count the number of bacteria of each strain, two agar media were respectively inoculated with 0.1 ml of the bacterial suspension and incubated for 24 hours at 37° C. Later, the number of colonies in both agar media was counted and averaged.
(§8) 4) The second ones of the sample dishes prepared in the process 2) were incubated for two hours at 37° C. after inoculation of the bacterial suspensions. Thereafter, 0.5 ml each of the corresponding bacterial suspensions was again inoculated thereinto and mixed well. The number of bacteria was counted immediately after reinoculation of the bacterial suspensions, and also after one and two hours of incubation at 37° C., in the same manner as in the process 3).
(§9) In Tables 2-4, “B” indicates the theoretical number of bacteria in the mixtures of the bacterial suspensions and the test samples. The symbol “*” indicates reinoculation.

[1] = system: Pathogenic E. coli O157:H7 Sakai; assay type: cell-based, Escherichia coli; conditions: for number of bacteria: Pathogenic E. coli O157:H7 Sakai; for antibacterial effects (in words): pathogenic E. coli
Description: as §1, §2
Ethanol gel: A hand cleansing gel made by FUMAKILLA CO. LTD. (ethanol content: 70%, formulated with aloe extract).
Pathogenic Escherichia coli 0157:H7 Sakai
as §4, §5, §6, §7, §8, §9

[2] = system: Staphylococcus aureus ATCC25923; assay type: cell-based; conditions: for antibacterial effects (in words): S. aureus
Description: as §1, §2, §3
Staphylococcus aureus ATCC25923
Nutrient Agar (Difco) was employed for S. aureus ATCC25923.
as §5, §6, §7, §8, §9

[3] = after two hours of reinoculation

`CCO` [70% Ethanol, Ethanol] was tested, and the number of bacteria (Escherichia coli FMK1254; E. coli FMK1254, 1 hour at 37° C. after reinoculation) was 4095 CFU/ml, the number of bacteria (Escherichia coli FMK1254; E. coli FMK1254, 1 hour of incubation at 37° C. after inoculation) was “≦9 CFU/ml” and the number of bacteria (Escherichia coli FMK1254; E. coli FMK1254, 2 hours at 37° C. after reinoculation) was 2195 CFU/ml. The number of bacteria (Escherichia coli FMK1254; E. coli FMK1254, 2 hours of incubation at 37° C. after inoculation) was “≦9 CFU/ml”, the number of bacteria (Escherichia coli FMK1254; E. coli FMK1254, immediately after inoculation (0)) was “≦9 CFU/ml” and the number of bacteria (Escherichia coli FMK1254; E. coli FMK1254, immediately after reinoculation (0*)) was 2280 CFU/ml. For the same molecule, the “antibacterial effects (in words)” value (Escherichia coli FMK1254; after two hours of inoculation) was “excellent”, the “antibacterial effects (in words)” value (Escherichia coli FMK1254; [3]) was “totally lost” and the number of bacteria ([1]; 1 hour at 37° C. after inoculation) was “≦9 CFU/ml”. The number of bacteria ([1]; 1 hour at 37° C. after reinoculation) was “≧30000 CFU/ml”, the number of bacteria ([1]; 2 hours at 37° C. after inoculation) was “≦9 CFU/ml” and the number of bacteria ([1]; 2 hours at 37° C. after reinoculation) was “≧30000 CFU/ml”. The number of bacteria ([1]; immediately after inoculation (0)) was “≦9 CFU/ml”, the number of bacteria ([1]; immediately after reinoculation (0*)) was “≧30000 CFU/ml” and the “antibacterial effects (in words)” value ([1]; after two hours of inoculation) was “excellent”. For the same molecule, the “antibacterial effects (in words)” value [1, 3] was “totally lost”, the number of bacteria ([2]; S. aureus ATCC25923, 1 hour at 37° C. after inoculation) was “≦9 CFU/ml” and the number of bacteria ([2]; S. aureus ATCC25923, 1 hour at 37° C. after reinoculation) was 75 CFU/ml. For the same molecule, the number of bacteria ([2]; S. aureus ATCC25923, 2 hours at 37° C. after inoculation) was “≦9 CFU/ml”, the number of bacteria ([2]; S. aureus ATCC25923, 2 hours at 37° C. after reinoculation) was 45 CFU/ml and the number of bacteria ([2]; S. aureus ATCC25923, immediately after inoculation (0)) was “≦9 CFU/ml”. For the same molecule, the number of bacteria ([2]; S. aureus ATCC25923, immediately after reinoculation (0*)) was 180 CFU/ml, the “antibacterial effects (in words)” value ([2]; after two hours of inoculation) was “excellent” and the “antibacterial effects (in words)” value [2, 3] was “not sufficient”.

— patent US20060019855A1, “Composition for a bactericidal, disinfecting, and cleansing foam agent” (priority 2004, published 2006)
